Test results reported in PMC12810351, “Structure-effect relationship of phenolic compounds on α-amylase inhibition studied by isothermal titration calorimetry” (Current Research in Food Science, 2025).
Read-outs that look alike come from different tables or passages of the source.

Columns and labels:
α-amylase = conditions: substrate starch, DNS UV/Vis, cited from earlier work; for Ki: ref Li et al. (2009), read-out: Kic
[1] = target: T1, porcine pancreatic α-amylase (Sus scrofa, UniProt P00690); experiment: starch hydrolysis by α-amylase monitored by isothermal titration calorimetry (ITC); type: biochemical; conditions: for remaining activity at 100 µM: 100 μM polyphenol; for inhibition mechanism suggested by Kic/Kiu ratios: polyphenol standards
T1 sequence (P00690 16-511): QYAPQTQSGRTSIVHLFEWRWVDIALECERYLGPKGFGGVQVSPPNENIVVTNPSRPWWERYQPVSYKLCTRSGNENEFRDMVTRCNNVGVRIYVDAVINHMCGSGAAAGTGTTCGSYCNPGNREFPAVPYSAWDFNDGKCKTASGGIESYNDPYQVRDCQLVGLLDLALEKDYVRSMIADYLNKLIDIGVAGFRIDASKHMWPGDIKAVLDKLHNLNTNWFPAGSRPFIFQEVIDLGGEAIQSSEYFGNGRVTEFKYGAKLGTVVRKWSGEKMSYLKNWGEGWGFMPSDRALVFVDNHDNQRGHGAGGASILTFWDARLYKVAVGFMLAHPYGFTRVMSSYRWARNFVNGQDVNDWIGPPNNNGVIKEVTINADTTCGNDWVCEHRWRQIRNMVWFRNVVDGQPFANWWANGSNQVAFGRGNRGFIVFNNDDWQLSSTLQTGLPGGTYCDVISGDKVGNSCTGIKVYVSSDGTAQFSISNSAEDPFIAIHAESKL
Protocol: The amylase stock solution was diluted each day and stored during the day at 4 °C.
The experiments were conducted using an Affinity ITC LV instrument with a cell volume of 182 μL (TA Instruments, Eschborn, Germany). […] These controls were conducted to determine the optimal injection volume to achieve maximal velocity (vmax) (S11). […] Enzyme kinetic constants were determined at 310 K.
The heat released during starch conversion was continuously monitored, with calculations performed using Microsoft Excel® software. The enzymatic rate (v) is directly proportional to the measured thermal power (eq (1)).(1) v=dP/dt=1/Vcell·ΔRHapp·dQ/dt
The reaction enthalpy ( ΔRHapp ) is determined by integrating the heat peak over its entire duration, divided by the number of substrate molecules converted:(2) ΔRHapp=∫t=0∞dQ/dtdt/nS
(dQ/dt)max [%], ΔRHapp [%] und vmax [%] are calculated in relation to daily control.
The substrate concentration at time t ([S]t) is calculated according to eq (3).(3) [S]t=∫t∞dQ/dtdt/∫0∞dQ/dtdt·[S]t=0
Therefore, the thermogram contains all the required data for calculating inhibition constants. The maximal conversion rate vmax and the Michaelis-Menten constant Km are determined from control experiments conducted in the absence of an inhibitor. In the presence of an inhibitor [I] the apparent values of vmaxapp and Kmapp are obtained. Competitive inhibition (Kic, eq (5)) is due to the formation of an enzyme-inhibitor complex (EI), whereas uncompetitive inhibition (Kiu, eq (5)) occurs when an inhibitor binds to a […]:(5) Kic=vmaxapp/Kmapp·[I]/(vmax/Km)−(vmaxapp/Kmapp)Kiu=vmaxapp·[I]/vmax−vmaxapp
The IC50 value, a key pharmacological metric, is used to compare the potency of inhibitors. […] The conversion rate (v0) was calculated from the thermogram according to eq (1), and subsequently plotted against the […]

[2] = 26 nM α-amylase, starch, 310 K, relative to control without inhibitor, read-out: (dQ/dt)max [%]
[3] = relative to control, read-out: vmax [%]
[4] = calculated based on the mass concentration
[5] = calculated based on the mass concentration, read-out: IC50 [g/L] (converted)
[6] = calculated based on the mass concentration, read-out: Kic [g/L] (converted)
[7] = calculated based on the mass concentration, read-out: Kiu [g/L] (converted)
[8] = competitive inhibition constant, substrate starch, ITC, 100 μM polyphenol (EGCG 25 μM), read-out: Kic
[9] = substrate starch, ITC, calculated by eq (6), substrate concentration of 1 M (IC50 equivalent to Kiu), read-out: IC50*
[10] = uncompetitive inhibition constant, substrate starch, ITC, 100 μM polyphenol (EGCG 25 μM), read-out: Kiu

Compound | Ki (α-amylase) | IC50 (α-amylase; ref Souza Schmidt Gonçalves et al. (2010)) | remaining activity at 100 µM [1, 2] | remaining activity at 100 µM [1, 3] | α (Kic/Kiu) [1, 4] | IC50 [1, 5] | Ki [1, 6] | Ki [1, 7] | Ki [1, 8] | inhibition mechanism suggested by Kic/Kiu ratios [1] | inhibition type ([1]; substrate starch, ITC) | IC50 [1, 9] | Ki [1, 10] | reversibility of inhibition (from ΔRHapp) ([1]; 100 μM polyphenol (EGCG 25 μM)) | IC50 [1, 4] | Kic [1, 4] | Kiu [1, 4]
C[C@@H]1O[C@@H](OC[C@H]2O[C@@H](Oc3c(-c4ccc(O)c(O)c4)oc4cc(O)cc(O)c4c3=O)[C@H](O)[C@@H](O)[C@@H]2O)[C@H](O)[C@H](O)[C@H]1O [rutin, quercetin-3-O-rutinoside] | 8.96 µM | 1.2 µM | 90 ± 6% | 92 ± 4% | 0.28 ± 0.12 | 770 µM | 360 µM | 1560 µM | 354 ± 55 µM | preferentially bind to the enzyme | mixed | 1540 ± 855 µM | 1560 ± 872 µM |  |  |  | 
Oc1cc(O)c2c(c1)O[C@H](c1ccc(O)c(O)c1)[C@H](O)[C@H]2c1c(O)cc(O)c2c1O[C@H](c1ccc(O)c(O)c1)[C@H](O)C2 [PC B2, procyanidin B2] |  |  | 56 ± 4% | 62 ± 4% | 0.94 ± 0.13 | 121 µM | 121 µM | 121 µM | 177 ± 39 µM |  |  | 173 ± 26 µM | 173 ± 26 µM | irreversible aggregation |  |  | 
Oc1cc(O)c2c(c1)O[C@H](c1ccc(O)c(O)c1)[C@@H](O)C2 [CAT, (+)-catechin] |  |  |  |  | 0.75 ± 0.40 |  |  |  |  |  |  |  |  |  | 120 ± 50 µg/mL | 0.10 ± 0.06 g/L | 0.14 ± 0.06 g/L
Oc1cc(O)c2c(c1)O[C@H](c1ccc(O)c(O)c1)[C@H](O)[C@H]2c1c(O)cc(O)c2c1O[C@H](c1ccc(O)c(O)c1)[C@@H](O)C2 [PC B1, procyanidin B1] |  |  | 66 ± 14% | 66 ± 9% | 0.71 ± 0.20 | 190 µM | 156 µM | 225 µM | 155 ± 79 µM |  |  | 219 ± 91 µM | 219 ± 91 µM |  |  |  | 
Oc1cc(O)c2c(c1)O[C@H](c1ccc(O)c(O)c1)[C@H](O)[C@H]2c1c(O)cc(O)c2c1O[C@H](c1ccc(O)c(O)c1)[C@H](O)[C@H]2c1c(O)cc(O)c2c1O[C@H](c1ccc(O)c(O)c1)[C@H](O)C2 [PC C1, procyanidin C1] |  |  | 44 ± 4% | 50 ± 4% | 0.90 ± 0.12 | 104 µM | 92.3 µM | 104 µM | 94 ± 26 µM |  |  | 103 ± 16 µM | 103 ± 16 µM | irreversible aggregation |  |  | 
O=c1c(O[C@@H]2O[C@H](CO)[C@@H](O)[C@H](O)[C@H]2O)c(-c2ccc(O)c(O)c2)oc2cc(O)cc(O)c12 [Q-3-glc, quercetin-3-O-glucoside] | 5.35 µM |  | 72 ± 9% | 63 ± 4% | 0.65 ± 0.07 | 151 µM | 108 µM | 172 µM | 115 ± 16 µM | preferentially bind to the enzyme | mixed | 178 ± 28 µM | 179 ± 28 µM |  |  |  | 
Oc1cc(O)c2c(c1)O[C@H](c1ccc(O)c(O)c1)[C@H](O)C2 [EC, (−)-epicatechin] |  |  | 82 ± 8% | 78 ± 4% | 0.74 ± 0.10 | 482 µM | 379 µM | 517 µM | 253 ± 47 µM | preferentially bind to the enzyme |  | 385 ± 82 µM | 385 ± 82 µM |  |  |  | 
